Experimental data taken from patent publication US10774083B2, “Heterocyclic amide compound” (TAKEDA PHARMACEUTICAL COMPANY LIMITED, priority 2016, dated 2020).

Columns and labels:
[1] = system: human ovarian cancer cells A2780; assay: proliferation inhibitory activity against human ovarian cancer cell A2780 (CellTiter-Glo); type: cell-based; conditions: A2780, 72 h, 1 μM test compound, 3 days of culture, read-out: proliferation inhibitory rate (%) of A2780 cells
Procedure: The proliferation inhibitory activity of the compound of the present invention against human ovarian cancer cell A2780 was evaluated by the following method.
Human ovarian cancer cells A2780 were seeded in a 384 well culture plate at 1000 cells in 30 μL of medium per well by using RPMI-1640 medium (Wako Pure Chemical Industries, Ltd.) containing 10% fetal bovine serum and penicillin/streptomycin. The next day, 10 μL of RPMI-1640 medium containing the test compound was added to the cells. After 3 days of culture, 20 μL of CellTiter-Glo Luminescent Cell Viability Assay solution (Promega) was added. The luminescence signal was measured using EnVision (PerkinElmer) and the inhibitory rate (%) of the test compound was calculated with a well free of seeding of cell as 100% inhibition.

[2] = target: T1, human PRS protein (His-Avi-hEPRS (998-1512)) (Homo sapiens, UniProt P07814); assay: PRS inhibitory activity ([32P]pyrophosphate exchange enzyme assay); type: biochemical; conditions: 300 nM test compound; read-out: inhibitory rate (%) of PRS
T1 construct: to construct His-Avi-hEPRS (998-1512) expression plasmid; His tag (N); Avi tag (N); TEV cleavage site (ENLYFQG, then S; inferred from the forward primer hEPRS-TEV-NheF) (N); made in house; host or cells: E. coli BL21(DE3)
T1 sequence (P07814 998-1512 limits assumed): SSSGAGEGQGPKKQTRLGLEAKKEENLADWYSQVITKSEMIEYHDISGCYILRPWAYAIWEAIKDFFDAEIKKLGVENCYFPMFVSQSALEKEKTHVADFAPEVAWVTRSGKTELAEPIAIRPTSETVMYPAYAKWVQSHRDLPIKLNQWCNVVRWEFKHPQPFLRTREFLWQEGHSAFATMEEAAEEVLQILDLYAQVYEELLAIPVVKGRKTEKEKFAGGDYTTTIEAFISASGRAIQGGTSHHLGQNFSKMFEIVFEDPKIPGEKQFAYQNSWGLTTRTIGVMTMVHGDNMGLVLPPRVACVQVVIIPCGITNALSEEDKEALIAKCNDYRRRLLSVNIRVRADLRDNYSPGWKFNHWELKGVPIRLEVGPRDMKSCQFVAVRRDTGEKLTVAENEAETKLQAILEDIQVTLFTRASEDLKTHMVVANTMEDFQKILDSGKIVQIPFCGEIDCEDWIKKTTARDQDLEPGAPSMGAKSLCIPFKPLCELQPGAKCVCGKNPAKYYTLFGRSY
Procedure: The PRS inhibitory activity of the compounds of the present invention was evaluated by the following method.
An expression plasmid of Catalytic Domain of human EPRS was obtained by PCR using human skeletal muscle cDNA Library (Takara Bio Inc.) as a template and 2 kinds of Primers 5′-[…]-3′ (hEPRS-TEV-NheF) (SEQ ID NO: 1) and 5′-[…]-3′ (hEPRS-St-Not-R) (SEQ ID NO: 2). PCR was performed using PrimeStar GXL DNA Polymerase (Takara Bio Inc.) and included (1) 98° C., 1 min, (2) 35 cycles of 98° C., 10 sec, 65° C., 10 sec, 72° C., 1 min, and (3) reaction at 72° C., 1 min. This was cleaved with Nhe I and Not I (Takara Bio Inc.) and inserted using Ligation High (TOYOBO CO., LTD.) into the Nhe I/Not I site of pET21a (Novagen) with His-Avitag inserted thereinto. This was introduced into ECOS JM109 (NIPPON GENE CO., LTD.) to construct His-Avi-hEPRS (998-1512) expression plasmid.
Recombinant human PRS protein was prepared by transforming the His-Avi-hEPRS (998-1512) expression plasmid prepared above into ECOS Competent E. coli BL21(DE3) (NIPPON GENE CO., LTD.). Escherichia coli obtained by transformation was inoculated into 300 mL of LB medium (1% peptone, 0.5% yeast extract, 0.5% sodium chloride, 0.01% ampicillin) and cultured at 30° C. for 16 hr. The obtained culture medium was transferred into a jar culture tank charged with 6 L of the main fermentation medium (0.3% potassium dihydrogen phosphate, 0.6% disodium hydrogen phosphate, 0.1% ammonium chloride, 0.05% sodium chloride, 0.024% magnesium sulfate, 0.02% NEWPOL LB-625, 1.5% sorbitol, 1.5% casamino acid, 0.5% yeast extract, 0.01% ampicillin) and culturing was started at 37° C., quantity of airflow 5 L/min, stirring rotating speed 400 rpm. At the time point when the turbidity of the culture medium reached about 550 Klett units, the culture temperature was lowered to 16° C., isopropyl-β-D-thiogalactopyranoside (IPTG) was added to the final concentration 0.1 mM, and culturing was performed for another 16 hr to induce expression of human PRS. After completion of culturing, the culture medium was centrifuged at 5,000 rpm for 10 min. The obtained human PRS expressing Escherichia coli was suspended in a buffer containing 50 mM Tris-HCl (pH 8.0), 150 mM NaCl, 1 mM DTT, 5 U/ml Benzonase, 20 mM Imidazole and sonicated using Sonifier (BRANSON). The homogenate was centrifuged (33,000×G, 60 min, Beckman Coulter), the obtained supernatant was subjected to adsorption by passage through Ni-NTA Superflow (QIAGEN) column equilibrated in advance with 50 mM Tris-HCl (pH 8.0), 300 mM NaCl, 1 mM DTT, and elution was performed with a buffer containing 50 mM Tris-HCl (pH 8.0), 300 mM NaCl, 1 mM DTT, 250 mM Imidazole. Furthermore, gel filtration was performed using Superdex200 pg column equilibrated in advance with a buffer containing 50 mM Tris-HCl (pH 8.0), 150 mM NaCl, 1 mM DTT, 10% glycerol to give purified human PRS protein. The protein concentration was measured using BCA Protein Assay Kit (PIERCE) and BSA as the standard.
A test compound was dissolved in 5 μL of an assay buffer (50 mM Tris-HCl (pH 7.5), 20 mM KCl, 1 mM DTT, 0.01% Tween 20) and incubated for 60 min with 5 μL of 40 nM human PRS protein dissolved in the assay buffer containing 40 mM MgCl2. An enzyme reaction of the human PRS protein was started by adding 10 μL of a substrate solution containing 300 μM ATP, 160 μM L-Proline, 400 μM pyrophosphate, [^32P]pyrophosphate (PerkinElmer) prepared to 1 MBq/mL. After incubation at room temperature for 30 min, the reaction was discontinued by adding 50 μL of discontinuation/washing solution (1M HCl, 200 mM sodium pyrophosphate) to the reaction mixture. The reaction solution was transferred to a filter plate (Merck Millipore, Billerica, Mass.) previously added with 200 μL of charcoal solution (0.5% HCl solution containing 10% charcoal (w/v)). […]

Row | inhibition at 0.3 µM [2] [%] | Compound | inhibition at 1 µM [1] [%]
1 | 98 | O=C(NCc1ccccc1Cl)c1ncnc2nc(C3CCCC3)[nH]c12 [Example 1, N-(2-chlorobenzyl)-8-cyclopentyl-7H-purine-6-carboxamide] | 60
2 | 101 | Cn1cc(-c2cc(F)cc(CNC(=O)c3ncnc4nc(C5CCCC5)[nH]c34)c2)cn1 [Example 2, 8-cyclopentyl-N-(3-fluoro-5-(1-methyl-1H-pyrazol-4-yl)benzyl)-7H-purine-6-carboxamide] | 97
3 | 101 | Cn1cc(-c2cc(F)cc(CNC(=O)c3ncnc4nc(C5CCCC5)n(C)c34)c2)cn1 [Example 3, 8-cyclopentyl-N-(3-fluoro-5-(1-methyl-1H-pyrazol-4-yl)benzyl)-7-methyl-7H-purine-6-carboxamide] | 99
4 | 101 | Cn1cc(-c2cc(F)cc(CNC(=O)c3ncnc4nc(C5CCCC5)n(C)c34)c2)ccc1=O [Example 4, 8-cyclopentyl-N-(3-fluoro-5-(1-methyl-6-oxo-1,6-dihydropyridin-3-yl)benzyl)-7-methyl-7H-purine-6-carboxamide] | 99
5 | 102 | Cn1cc(-c2cc(F)c(F)c(CNC(=O)c3ncnc4nc(C5CCCC5)n(C)c34)c2)cn1 [Example 5, 8-cyclopentyl-N-(2,3-difluoro-5-(1-methyl-1H-pyrazol-4-yl)benzyl)-7-methyl-7H-purine-6-carboxamide] | 98
6 | 93 | Cc1cc(N2OCC(C)(C)C2=O)cc(C(=O)NCc2cc(F)cc(-c3cnn(C)c3)c2)n1 [Example 179, 4-(4,4-dimethyl-3-oxo-1,2-oxazolidin-2-yl)-N-(3-fluoro-5-(1-methyl-1H-pyrazol-4-yl)benzyl)-6-methylpyridine-2-carboxamide] | –
7 | 86 | Cc1cc(N2CC[C@@](C#N)(C3CC3)C2=O)cc(C(=O)NCc2cc(F)cc(-c3cncnc3)c2)n1 [Example 205, 4-((3S)-3-cyano-3-cyclopropyl-2-oxopyrrolidin-1-yl)-N-(3-fluoro-5-(pyrimidin-5-yl)benzyl)-6-methylpyridine-2-carboxamide] | –
8 | 83 | Cc1cc(N2CC[C@@](C#N)(C3CC3)C2=O)cc(C(=O)NCc2cc(-c3cnn(C)c3)cc(C(F)(F)F)c2)n1 [Example 218, 4-((3S)-3-cyano-3-cyclopropyl-2-oxopyrrolidin-1-yl)-6-methyl-N-(3-(1-methyl-1H-pyrazol-4-yl)-5-(trifluoromethyl)benzyl)pyridine-2-carboxamide] | –
9 | 94 | CCc1cc(N2CC[C@@](C#N)(C3CC3)C2=O)cc(C(=O)NCc2cc(F)cc(-c3cnn(C)c3)c2)n1 [Example 219, 4-((3S)-3-cyano-3-cyclopropyl-2-oxopyrrolidin-1-yl)-6-ethyl-N-(3-fluoro-5-(1-methyl-1H-pyrazol-4-yl)benzyl)pyridine-2-carboxamide] | –
10 | 74 | COc1cc(N2CC[C@@](C#N)(C3CC3)C2=O)cc(C(=O)NCc2cc(F)cc(-c3cnn(C)c3)c2)n1 [Example 224, 4-((3S)-3-cyano-3-cyclopropyl-2-oxopyrrolidin-1-yl)-N-(3-fluoro-5-(1-methyl-1H-pyrazol-4-yl)benzyl)-6-methoxypyridine-2-carboxamide] | –
11 | 66 | Cn1cc(-c2cc(F)cc(CNC(=O)c3cc(N4CC[C@@](C#N)(C5CC5)C4=O)cc(C4CC4)n3)c2)cn1 [Example 225, 4-((3S)-3-cyano-3-cyclopropyl-2-oxopyrrolidin-1-yl)-6-cyclopropyl-N-(3-fluoro-5-(1-methyl-1H-pyrazol-4-yl)benzyl)pyridine-2-carboxamide] | –
12 | 91 | Cc1cc(N2CCN(C(C)C)C2=O)cc(C(=O)NCc2cc(F)cc(-c3cnn(C)c3)c2)n1 [Example 226, N-(3-fluoro-5-(1-methyl-1H-pyrazol-4-yl)benzyl)-4-(3-isopropyl-2-oxoimidazolidin-1-yl)-6-methylpyridine-2-carboxamide] | –
13 | 91 | Cc1cc(N2CCC(C#N)(CC3CC3)C2=O)cc(C(=O)NCc2cc(F)cc(-c3cnn(C)c3)c2)n1 (stereo not drawn) [Example 230, 4-(3-cyano-3-(cyclopropylmethyl)-2-oxopyrrolidin-1-yl)-N-(3-fluoro-5-(1-methyl-1H-pyrazol-4-yl)benzyl)-6-methylpyridine-2-carboxamide] | –
14 | 87 | Cc1cc(N2CCC(C3CC3)C2=O)cc(C(=O)NCc2cc(F)cc(-c3cnn(C)c3)c2)n1 (stereo not drawn) [Example 234, 4-(3-cyclopropyl-2-oxopyrrolidin-1-yl)-N-(3-fluoro-5-(1-methyl-1H-pyrazol-4-yl)benzyl)-6-methylpyridine-2-carboxamide] | –
15 | 69 | Cc1cc(N2CCC(CO)(C3CC3)C2=O)cc(C(=O)NCc2cc(F)cc(-c3cnn(C)c3)c2)n1 (stereo not drawn) [Example 235, 4-(3-cyclopropyl-3-(hydroxymethyl)-2-oxopyrrolidin-1-yl)-N-(3-fluoro-5-(1-methyl-1H-pyrazol-4-yl)benzyl)-6-methylpyridine-2-carboxamide] | –
16 | 74 | Cc1nc(C(=O)NCc2cc(F)cc(-c3cnn(C)c3)c2)cc(N2CC[C@@](C#N)(C3CC3)C2=O)n1 [Example 237, 6-((3S)-3-cyano-3-cyclopropyl-2-oxopyrrolidin-1-yl)-N-(3-fluoro-5-(1-methyl-1H-pyrazol-4-yl)benzyl)-2-methylpyrimidine-4-carboxamide] | –
